The record followed here is article PMC10493664, “The neurotrophic activities of brain‐derived neurotrophic factor are potentiated by binding with apigenin, a common flavone in vegetables, in stimulating the receptor signaling” (CNS Neuroscience & Therapeutics, 2023).

For the test, the target named is T1, BDNF (Homo sapiens, UniProt P23560).
T1 construct: purchased human BDNF (Alomone Labs); noncovalent dimer; PDB 1B8M used only as docking model
T1 sequence (P23560 129-247): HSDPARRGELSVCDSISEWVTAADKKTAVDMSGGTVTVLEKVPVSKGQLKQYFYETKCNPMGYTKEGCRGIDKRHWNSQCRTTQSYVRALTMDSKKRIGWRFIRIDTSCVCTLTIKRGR
In words: surface plasmon resonance (Biacore T100, BDNF on CM5 chip, steady-state affinity fit). Format: binding. Background: Surface plasmon resonance follows binding to a sensor surface in real time, without labels.

Molecules are shown by their SMILES.

As a reminder, the Kd is the constant that tells how readily two partners part at equilibrium. As for `O=c1cc(-c2ccc(O)cc2)oc2cc(O)cc(O)c12` [apigenin], the Kd is roughly 14.2 µM.
